Test results from patent US20070015828A1 (Wyeth, priority 2005, published 2007).
Read-outs that look alike come from different tables or passages of the source.

Columns and labels:
Histamine, H1 = biological target: T1, Histamine, H1 (Bos taurus, UniProt P30546); assay: Histamine H1 binding assay; conditions: Test Compound @ 10 1 M, read-out: Receptor Binding % Inhibition
T1 construct: Novascreen (assay provider)

Serotonin, 5HT2A (h) = biological target: T2, Serotonin, 5HT2A (h) (Homo sapiens, UniProt P28223); assay: Receptor binding assay: Serotonin 5HT2A; conditions: Test Compound @ 10 1 M
T2 construct: Novascreen (contract assay)
T2 sequence (P28223 whole entry): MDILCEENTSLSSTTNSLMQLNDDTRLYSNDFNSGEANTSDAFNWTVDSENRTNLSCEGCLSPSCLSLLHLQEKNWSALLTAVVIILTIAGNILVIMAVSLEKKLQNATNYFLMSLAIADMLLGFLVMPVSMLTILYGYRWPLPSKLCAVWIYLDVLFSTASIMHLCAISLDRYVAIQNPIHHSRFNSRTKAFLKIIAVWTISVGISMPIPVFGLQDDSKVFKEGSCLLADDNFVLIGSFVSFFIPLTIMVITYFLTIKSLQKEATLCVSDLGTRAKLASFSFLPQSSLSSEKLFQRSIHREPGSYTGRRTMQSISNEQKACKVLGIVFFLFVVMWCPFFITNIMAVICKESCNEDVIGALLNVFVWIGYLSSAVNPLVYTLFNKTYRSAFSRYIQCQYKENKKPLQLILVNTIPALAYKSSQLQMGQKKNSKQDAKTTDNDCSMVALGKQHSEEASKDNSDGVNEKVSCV

Serotonin, 5HT1A (hr) = biological target: T3, Serotonin, 5HT1A (hr) (Homo sapiens, UniProt P08908); assay: Receptor binding assay: Serotonin 5HT1A; conditions: Test Compound @ 10 1 M
T3 construct: Novascreen (contract assay)
T3 sequence (P08908 whole entry): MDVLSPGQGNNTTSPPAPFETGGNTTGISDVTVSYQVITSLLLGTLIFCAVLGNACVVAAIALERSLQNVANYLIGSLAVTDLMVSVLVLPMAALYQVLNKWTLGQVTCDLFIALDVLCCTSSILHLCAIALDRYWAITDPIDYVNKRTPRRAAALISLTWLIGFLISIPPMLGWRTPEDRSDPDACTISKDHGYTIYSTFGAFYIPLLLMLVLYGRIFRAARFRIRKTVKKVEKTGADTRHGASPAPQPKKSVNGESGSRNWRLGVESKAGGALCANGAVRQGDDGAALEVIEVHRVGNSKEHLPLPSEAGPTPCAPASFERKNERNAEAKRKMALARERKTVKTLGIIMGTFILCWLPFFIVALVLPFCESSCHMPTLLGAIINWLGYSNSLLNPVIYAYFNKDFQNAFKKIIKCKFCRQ

Serotonin, 5HT3 (hr) = biological target: T4, Serotonin, 5HT3 (hr) (Homo sapiens, UniProt P46098); assay: Receptor binding assay: Serotonin 5HT3; conditions: Test Compound @ 10 1 M
T4 construct: Novascreen (contract assay)
T4 sequence (P46098 24-478): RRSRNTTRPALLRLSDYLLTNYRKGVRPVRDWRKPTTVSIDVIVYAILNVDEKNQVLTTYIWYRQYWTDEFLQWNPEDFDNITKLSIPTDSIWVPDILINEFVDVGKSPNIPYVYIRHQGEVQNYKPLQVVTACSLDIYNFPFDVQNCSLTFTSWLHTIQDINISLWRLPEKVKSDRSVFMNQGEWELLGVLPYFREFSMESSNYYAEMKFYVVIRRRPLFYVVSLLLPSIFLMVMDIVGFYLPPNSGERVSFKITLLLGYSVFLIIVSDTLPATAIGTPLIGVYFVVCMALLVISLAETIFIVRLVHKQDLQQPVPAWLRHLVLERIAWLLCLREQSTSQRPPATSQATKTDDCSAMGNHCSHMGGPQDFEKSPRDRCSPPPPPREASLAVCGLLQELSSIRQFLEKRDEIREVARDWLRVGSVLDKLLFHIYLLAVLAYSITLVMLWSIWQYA

Pharmacokinetics in dog = assay type: in vivo; conditions: plasma, male dogs
Experimental: Preclinical pharmacokinetics of 1-[2-dimethylamino-1-(4-phenol)ethyl]-cis-1,4-cyclohexandiol was determined after a single 2.5 mg/kg IV bolus and 7.5 mg/kg oral dose in male dogs. […] The oral bioavailability was high (60%).

Oxidase, MAO-A, Central = assay: Receptor binding assay: Oxidase MAO-A central (second line); conditions: Test Compound @ 10 1 M
Adrenergic, Beta 2 (hr) = Adrenergic, Beta 2 (hr) (Homo sapiens, UniProt P07550); assay: Receptor binding assay: Adrenergic Beta 2; conditions: Test Compound @ 10 1 M
Adrenergic, Beta 2 (hr), sequence (P07550 whole entry): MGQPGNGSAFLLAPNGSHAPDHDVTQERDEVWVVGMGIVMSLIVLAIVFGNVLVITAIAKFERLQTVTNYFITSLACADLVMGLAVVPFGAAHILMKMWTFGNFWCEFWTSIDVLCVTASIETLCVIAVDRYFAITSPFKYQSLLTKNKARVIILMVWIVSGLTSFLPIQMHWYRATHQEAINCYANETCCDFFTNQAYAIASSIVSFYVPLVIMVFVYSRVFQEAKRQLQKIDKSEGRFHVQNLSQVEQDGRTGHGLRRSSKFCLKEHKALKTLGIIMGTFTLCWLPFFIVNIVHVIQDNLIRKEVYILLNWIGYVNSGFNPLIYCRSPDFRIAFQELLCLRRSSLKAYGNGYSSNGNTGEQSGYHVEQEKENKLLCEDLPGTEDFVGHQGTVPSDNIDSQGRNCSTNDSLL

Opiate, Mu (hr) = biological target: T5, Opiate, Mu (hr) (Homo sapiens, UniProt P35372); assay: Receptor binding assay: Opiate Mu; conditions: Test Compound @ 10 1 M
T5 construct: Novascreen (contract assay)
T5 sequence (P35372 whole entry): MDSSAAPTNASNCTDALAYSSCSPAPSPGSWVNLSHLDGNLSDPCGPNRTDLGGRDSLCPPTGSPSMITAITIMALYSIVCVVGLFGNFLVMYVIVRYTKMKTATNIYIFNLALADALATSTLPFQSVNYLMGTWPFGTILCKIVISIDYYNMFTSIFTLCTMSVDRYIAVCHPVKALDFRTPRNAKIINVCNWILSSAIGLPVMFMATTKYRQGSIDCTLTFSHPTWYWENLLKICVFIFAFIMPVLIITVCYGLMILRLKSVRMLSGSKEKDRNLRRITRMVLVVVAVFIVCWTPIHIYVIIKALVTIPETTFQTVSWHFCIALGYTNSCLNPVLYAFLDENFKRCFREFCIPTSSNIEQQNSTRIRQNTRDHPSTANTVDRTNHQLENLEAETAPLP

Serotonin, 5HT5A (hr) = biological target: T6, Serotonin, 5HT5A (hr) (Homo sapiens, UniProt P47898); assay: Receptor binding assay: Serotonin 5HT5A; conditions: Test Compound @ 10 1 M
T6 construct: Novascreen (contract assay)
T6 sequence (P47898 whole entry): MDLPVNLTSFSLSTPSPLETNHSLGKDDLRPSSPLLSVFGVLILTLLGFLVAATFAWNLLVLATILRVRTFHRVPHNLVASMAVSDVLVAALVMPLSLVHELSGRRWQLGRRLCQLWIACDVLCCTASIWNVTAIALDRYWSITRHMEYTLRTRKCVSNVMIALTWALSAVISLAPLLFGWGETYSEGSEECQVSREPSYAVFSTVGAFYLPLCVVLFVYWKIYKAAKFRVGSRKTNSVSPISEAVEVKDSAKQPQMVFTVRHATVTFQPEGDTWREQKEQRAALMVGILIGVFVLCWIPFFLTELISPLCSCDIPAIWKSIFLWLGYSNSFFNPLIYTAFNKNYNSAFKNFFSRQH

Dopamine Transporter = assay: Dopamine transporter binding assay; conditions: Test Compound @ 10 1 M
[1] = Solution Stability in aqueous solutions; assay type: physicochemical; conditions: room temperature, all aqueous solutions (pH 1.4-10.0)
Adrenergic, Alpha 2A (h) = biological target: T7, Adrenergic, Alpha 2A (h) (Homo sapiens, UniProt P08913); assay: Receptor binding assay: Adrenergic Alpha 2A; conditions: Test Compound @ 10 1 M
T7 construct: Novascreen (assay provider)
T7 sequence (P08913 whole entry): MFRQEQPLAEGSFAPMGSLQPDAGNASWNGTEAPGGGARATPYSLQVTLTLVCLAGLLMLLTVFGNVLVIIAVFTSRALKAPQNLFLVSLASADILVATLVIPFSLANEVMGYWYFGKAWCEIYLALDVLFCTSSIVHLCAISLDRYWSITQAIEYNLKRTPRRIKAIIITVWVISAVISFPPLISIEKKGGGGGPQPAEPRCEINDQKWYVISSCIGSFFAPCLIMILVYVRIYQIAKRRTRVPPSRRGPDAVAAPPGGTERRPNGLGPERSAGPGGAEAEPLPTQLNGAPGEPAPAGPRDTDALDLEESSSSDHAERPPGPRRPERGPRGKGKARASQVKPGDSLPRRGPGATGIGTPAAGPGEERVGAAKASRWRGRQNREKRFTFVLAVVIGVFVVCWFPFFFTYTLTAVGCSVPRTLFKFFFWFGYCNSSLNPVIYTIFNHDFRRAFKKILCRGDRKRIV

Cannabinoid, CB1 (hr) = Cannabinoid, CB1 (hr) (Homo sapiens, UniProt P21554); assay: Receptor binding assay: Cannabinoid CB1; conditions: Test Compound @ 10 1 M
Cannabinoid, CB1 (hr), sequence (P21554 whole entry): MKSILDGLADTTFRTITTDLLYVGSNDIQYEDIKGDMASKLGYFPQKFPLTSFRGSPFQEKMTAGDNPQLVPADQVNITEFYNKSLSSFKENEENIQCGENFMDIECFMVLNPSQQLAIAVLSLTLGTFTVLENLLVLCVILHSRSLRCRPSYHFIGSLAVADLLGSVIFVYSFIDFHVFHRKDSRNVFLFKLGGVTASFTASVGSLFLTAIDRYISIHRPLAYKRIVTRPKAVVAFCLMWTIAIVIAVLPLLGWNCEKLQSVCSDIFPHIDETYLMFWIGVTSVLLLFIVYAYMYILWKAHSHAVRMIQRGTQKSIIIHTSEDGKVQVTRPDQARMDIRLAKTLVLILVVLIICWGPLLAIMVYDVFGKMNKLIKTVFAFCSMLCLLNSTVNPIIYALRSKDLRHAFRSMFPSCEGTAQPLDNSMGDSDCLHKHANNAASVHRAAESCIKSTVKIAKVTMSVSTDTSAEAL

Opiate, Kappa (hr) = biological target: T8, Opiate, Kappa (hr) (Homo sapiens, UniProt P41145); assay: Receptor binding assay: Opiate Kappa; conditions: Test Compound @ 10 1 M
T8 construct: Novascreen (contract assay)
T8 sequence (P41145 whole entry): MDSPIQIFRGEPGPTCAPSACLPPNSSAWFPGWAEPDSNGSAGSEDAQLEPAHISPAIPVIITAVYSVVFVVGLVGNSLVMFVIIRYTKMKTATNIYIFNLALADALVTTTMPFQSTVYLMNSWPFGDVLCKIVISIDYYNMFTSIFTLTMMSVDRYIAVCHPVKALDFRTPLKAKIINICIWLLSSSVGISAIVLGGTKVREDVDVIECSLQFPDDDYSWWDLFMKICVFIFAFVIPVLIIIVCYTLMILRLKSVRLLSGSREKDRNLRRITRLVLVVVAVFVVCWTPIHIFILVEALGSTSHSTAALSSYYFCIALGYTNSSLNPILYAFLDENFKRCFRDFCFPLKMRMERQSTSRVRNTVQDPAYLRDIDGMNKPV

[2] = test system: spinal nerve ligation model of neuropathic pain, mechanical hyperalgesia; assay: Spinal nerve ligation model of neuropathic pain, mechanical hyperalgesia; assay type: in vivo; conditions: rat
Experimental: 1-[2-dimethylamino-1-(4-phenol)ethyl]-cis-1,4-cyclohexandiol was dissolved in sterile saline and administered orally (p.o.) at dosages of 10 mg/kg, 30 mg/kg and 100 mg/kg. Gabapentin was purchased from Toronto Research Chemicals (Ontario, Canada) and suspended in 2% Tween 80 in 0.5% methylcellulose and administered intraperitoneally (i.p.).
For the visceral pain study male CD-1 mice (20-25 g, Charles River; Kingston/Stoneridge, NY) were housed in groups of 5/cage on bedding and for the neuropathic study male Sprague-Dawley rats (125-150 g, Harlan; Indianapolis, Ind.) were housed 3/cage on bedding. For all studies animals were maintained in climate-controlled rooms on a 12-hour light/dark cycle (lights on at 0630) with food and water available ad libitum.
Surgical procedures were performed under 4% isoflurane/O2 anesthesia, delivered via nose cone and maintained at 2.5% for the duration of the surgery. After induction of anesthesia, the incision site was shaved and prepared in a sterile manner. […]
For the neuropathic model statistical significance was determined using a repeated measure ANOVA using a customized SAS-excel application (SAS Institute, Cary, N.C.). Significant main effects were analyzed further by subsequent least significant difference analysis. […]
Assessment of mechanical hyperalgesia thresholds were measured as the hind paw withdrawal threshold to a noxious mechanical stimulus and was determined using the paw pressure technique [Randall, L. O. and Selitto, J. J., A method for measurement of analgesic activity on inflamed tissue, Arch. […] Thresholds were evaluated prior to surgery and reassessed three weeks after SNL surgery. On test day, rats were administered vehicle or test compound mechanical thresholds assessed 1, 3, 5 and 24 hr after administration (n=10/group).

Glutamate, NMDA Glycine = assay: Receptor binding assay: Glutamate NMDA Glycine; conditions: Test Compound @ 10 1 M
Sigma 1 = assay: Receptor binding assay: Sigma 1; conditions: Test Compound @ 10 1 M
Adenosine A2A (hr) = Adenosine A2A (hr) (Homo sapiens, UniProt P29274); assay: Receptor binding assay: Adenosine A2A; conditions: Test Compound @ 10 1 M
Adenosine A2A (hr), sequence (P29274 whole entry): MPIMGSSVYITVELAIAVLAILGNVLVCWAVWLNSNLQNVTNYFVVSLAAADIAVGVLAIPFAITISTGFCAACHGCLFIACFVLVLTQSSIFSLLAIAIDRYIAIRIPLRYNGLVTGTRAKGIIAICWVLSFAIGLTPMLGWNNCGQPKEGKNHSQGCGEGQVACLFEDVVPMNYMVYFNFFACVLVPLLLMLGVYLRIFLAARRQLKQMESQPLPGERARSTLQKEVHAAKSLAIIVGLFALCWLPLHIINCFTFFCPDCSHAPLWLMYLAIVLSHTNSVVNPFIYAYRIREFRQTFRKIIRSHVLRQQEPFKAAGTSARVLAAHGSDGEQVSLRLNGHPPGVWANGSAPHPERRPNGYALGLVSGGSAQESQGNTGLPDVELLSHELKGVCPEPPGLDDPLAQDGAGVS

Histamine, H3 = assay: Receptor binding assay: Histamine H3; conditions: Test Compound @ 10 1 M
Adrenergic, Alpha 1B = assay: Receptor binding assay: Adrenergic Alpha 1B; conditions: Test Compound @ 10 1 M

T1 sequence (P30546 whole entry): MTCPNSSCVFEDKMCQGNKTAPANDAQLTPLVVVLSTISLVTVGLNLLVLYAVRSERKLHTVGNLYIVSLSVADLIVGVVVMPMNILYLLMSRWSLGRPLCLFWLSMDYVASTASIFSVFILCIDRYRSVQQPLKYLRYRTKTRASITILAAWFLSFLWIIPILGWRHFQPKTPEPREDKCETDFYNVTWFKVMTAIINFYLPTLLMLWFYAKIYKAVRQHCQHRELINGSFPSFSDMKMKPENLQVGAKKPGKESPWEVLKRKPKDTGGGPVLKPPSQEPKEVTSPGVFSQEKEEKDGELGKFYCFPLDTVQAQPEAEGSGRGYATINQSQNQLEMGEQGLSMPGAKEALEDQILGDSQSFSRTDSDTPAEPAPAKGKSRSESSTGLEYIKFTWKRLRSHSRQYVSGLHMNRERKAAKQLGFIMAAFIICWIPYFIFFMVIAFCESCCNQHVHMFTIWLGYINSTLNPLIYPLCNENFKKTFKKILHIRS

## CN(C)CC(c1ccc(O)cc1)C1(O)CCC(O)CC1 (stereo not drawn) [1-[2-dimethylamino-1-(4-phenol)ethyl]-cis-1,4-cyclohexandiol]
Histamine, H1
  inhibition at 10 µM: -7.84%
Serotonin, 5HT2A (h)
  inhibition at 10 µM: 3.7%
Serotonin, 5HT1A (hr)
  inhibition at 10 µM: 1.8%
Serotonin, 5HT3 (hr)
  inhibition at 10 µM: 9.72%
Pharmacokinetics in dog; 7.5 mg/kg oral vs 2.5 mg/kg IV
  bioavailability: 60%
Pharmacokinetics in dog; single 2.5 mg/kg IV bolus
  clearance: ~7 mL/min/kg
Pharmacokinetics in dog; single 2.5 mg/kg IV bolus, read-out: apparent terminal half-life (t1/2) (converted)
  half-life: 5.6 h
Pharmacokinetics in dog; single 2.5 mg/kg IV bolus, read-out: apparent volume of distribution (VSS)
  Vd: 1.9 L/kg
Pharmacokinetics in dog; single oral dose of 7.5 mg/kg, read-out: terminal oral half-life (converted)
  half-life: 6 h
Oxidase, MAO-A, Central
  Receptor Binding % Inhibition: 2.43%
Adrenergic, Beta 2 (hr)
  inhibition at 10 µM: -2.46%
Opiate, Mu (hr)
  inhibition at 10 µM: -0.35%
Serotonin, 5HT5A (hr)
  inhibition at 10 µM: 19.9%
Dopamine Transporter
  Receptor Binding % Inhibition: 8.49%
[1]
  Solution Stability, time stable: The compound was stable for at least 24 hours
Adrenergic, Alpha 2A (h)
  inhibition at 10 µM: 10.4%
Cannabinoid, CB1 (hr)
  inhibition at 10 µM: 8.11%
Opiate, Kappa (hr)
  inhibition at 10 µM: -4.17%
[2]; 10 and 30 mg/kg
  effect versus the SNL/vehicle: positive trend
[2]; spinal nerve ligation, p.o.
  MED, reversal of mechanical hyperalgesia: 10 mg/kg
  reversal of mechanical hyperalgesia: statistically significant reversal
Glutamate, NMDA Glycine
  Receptor Binding % Inhibition: 2.24%
Sigma 1
  Receptor Binding % Inhibition: 2.96%
Adenosine A2A (hr)
  Receptor Binding % Inhibition: 7.68%
Histamine, H3
  Receptor Binding % Inhibition: 14.00%
Adrenergic, Alpha 1B
  Receptor Binding % Inhibition: 11.27%
